Reference: ChEMBL document CHEMBL4330072, “Neuroprotective effects of a novel carnosine-hydrazide derivative on hippocampal CA1 damage after transient cerebral ischemia” (Eur J Med Chem, 2019)
Activity calls are given as the source filed them. The rule behind the calls is not given here.

Experiments:
[1] = Quenching activity of compound in pH 7.4 PBS assessed as 4-HNE consumption at 2 mmol/L after 1 hr by HPLC analysis; format: functional
[2] = Quenching activity of compound in pH 7.4 PBS assessed as 4-HNE consumption at 2 mmol/L after 30 mins by HPLC analysis relative to control; format: functional
PC-12 [3] = test: Cytotoxicity against rat PC12 cells at 1 to 50 mM after 30 mins by MTT assay; format: cell-based; settings: pc-12, 0.5 h, 50000 µM
Meriones unguiculatus [4] = test: (§1) Neuroprotective activity against BCCO-induced transient cerebral ischemia in mongolian gerbil hippocampal CA1 region assessed as increase in viable neurons at 20 mg/kg, ip administered 20 mins prior to BCCO treatment and measured after 7 days by hematoxylin and eosin staining-based light microscopic analysis relative to control; format: functional
Meriones unguiculatus [5] = test: as §1, with “100” for “20”, “immediately after” for “20 mins prior to”; format: functional
Meriones unguiculatus [6] = test: Neuroprotective activity against BCCO-induced transient cerebral ischemia in mongolian gerbil hippocampal CA1 region assessed as increase in Hsp70 activity at 20 mg/kg, ip administered 20 mins prior to BCCO treatment measured after 24 hrs by immunostaining analysis; format: functional, organism-based
PC-12 [7] = test: Neuroprotective activity against 4-HNE-induced toxicity in rat PC12 cells at 30 mM preincubated for 30 mins followed by compound wash and 4-HNE addition measured after 24 hrs by MTT assay relative to control; format: functional
PC-12 [8] = test: Neuroprotective activity against 4-HNE-induced toxicity in rat PC12 cells preincubated for 30 mins followed by compound wash and 4-HNE addition measured after 24 hrs by MTT assay; format: functional, cell-based
Meriones unguiculatus [9] = test: as §1, with “100” for “20”, “immediately after” for “20 mins prior to”, “analysis” for “analysis relative to control”; format: functional, organism-based

SMILES: CC(=O)NCCC(=O)N[C@@H](Cc1c[nH]cn1)C(=O)NN
- Activity [1]: Active

SMILES: NCCC(=O)N[C@@H](Cc1c[nH]cn1)C(=O)NN
- Activity [2]: 90%
- Activity (PC-12 [3]): Non-Toxic
- Activity [1]: Active
- Activity (Meriones unguiculatus [4]): >60%
- Activity (Meriones unguiculatus [5]): 40%
- Activity (Meriones unguiculatus [6]): Active
- Activity (PC-12 [7]): 100%
- Activity (PC-12 [8]): Dose-dependent effect

SMILES: CC(=O)NCCC(=O)N[C@@H](Cc1c[nH]cn1)C(=O)NNC(C)=O
- Activity [1]: Active

SMILES: NNC(=O)[C@@H](N)Cc1c[nH]cn1
- Activity [2]: 70%
- Activity (Meriones unguiculatus [9]): inactive
- Activity [1]: Active

SMILES: CC(=O)NNC(=O)[C@H](Cc1c[nH]cn1)NC(=O)CCN
- Activity [1]: Active

SMILES: NCCC(=O)N[C@@H](Cc1c[nH]cn1)C(=O)O
- Activity [2]: 20%
- Activity [1]: Active
